Results: patent publication EP3807270B1, “NOVEL HETEROARYL HETEROCYCLYL COMPOUNDS FOR THE TREATMENT OF AUTOIMMUNE DISEASE” (F. Hoffmann-La Roche AG, priority 2018, dated 2019)

These compounds were tested against T1, hTLR7 (Homo sapiens, UniProt Q9NYK1) (assay: HEK293-Blue-hTLR-7 cells assay (SEAP reporter, R848 stimulation)). Conditions: HEK293-Blue-hTLR7 cells, R848, 20 hrs; read-out: HEK/hTLR7 IC50.
T1 sequence (Q9NYK1 27-1049): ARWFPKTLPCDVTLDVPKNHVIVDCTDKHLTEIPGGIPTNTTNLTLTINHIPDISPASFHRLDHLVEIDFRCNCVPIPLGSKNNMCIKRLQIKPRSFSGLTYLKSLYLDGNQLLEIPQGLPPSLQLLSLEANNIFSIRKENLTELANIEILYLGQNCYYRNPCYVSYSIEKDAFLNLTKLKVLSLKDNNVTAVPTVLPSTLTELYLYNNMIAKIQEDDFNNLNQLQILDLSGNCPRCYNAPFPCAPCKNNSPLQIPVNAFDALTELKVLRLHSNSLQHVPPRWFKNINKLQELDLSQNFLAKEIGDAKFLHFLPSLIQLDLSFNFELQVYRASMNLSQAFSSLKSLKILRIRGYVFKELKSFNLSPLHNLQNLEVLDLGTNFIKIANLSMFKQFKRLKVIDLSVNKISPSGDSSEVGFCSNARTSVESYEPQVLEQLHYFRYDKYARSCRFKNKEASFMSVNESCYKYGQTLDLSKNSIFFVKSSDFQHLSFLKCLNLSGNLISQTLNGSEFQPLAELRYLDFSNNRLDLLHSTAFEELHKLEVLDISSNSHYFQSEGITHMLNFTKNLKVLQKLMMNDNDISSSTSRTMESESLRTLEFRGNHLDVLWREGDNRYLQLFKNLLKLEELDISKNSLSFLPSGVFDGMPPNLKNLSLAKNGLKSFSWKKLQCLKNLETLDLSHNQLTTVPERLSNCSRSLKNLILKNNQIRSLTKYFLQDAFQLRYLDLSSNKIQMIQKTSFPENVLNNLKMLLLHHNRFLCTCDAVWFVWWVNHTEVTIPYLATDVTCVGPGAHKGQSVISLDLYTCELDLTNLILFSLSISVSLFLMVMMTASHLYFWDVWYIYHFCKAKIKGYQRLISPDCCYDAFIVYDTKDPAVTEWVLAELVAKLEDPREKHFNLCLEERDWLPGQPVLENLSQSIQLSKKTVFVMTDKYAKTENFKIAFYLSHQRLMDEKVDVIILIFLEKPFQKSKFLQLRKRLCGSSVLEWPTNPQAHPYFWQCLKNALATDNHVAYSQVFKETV
Type: cell-based
Parameters: host or cells: HEK293 (HEK-Blue)
Description: A stable HEK293-Blue-hTLR-7 cell line was purchased from InvivoGen (Cat.#: hkb-htlr7, San Diego, California, USA). These cells were originally designed for studying the stimulation of human TLR7 by monitoring the activation of NF-κB. A SEAP (secreted embryonic alkaline phosphatase) reporter gene was placed under the control of the IFN-β minimal promoter fused to five NF-κB and AP-1-binding sites. The SEAP was induced by activating NF-xB and AP-1 via stimulating HEK-Blue hTT,R7 cells with TLR7 ligands. Therefore, the reporter expression was declined by TLR7 antagonist under the stimulation of a ligand, such as R848 (Resiquimod), for incubation of 20 hrs. The cell culture supernatant SEAP reporter activity was determined using QUANTI-Blue™ kit (Cat.#: rep-qb1, Invivogen, San Diego, Ca, USA) at a wavelength of 640 nm, a detection medium that turns purple or blue in the presence of alkaline phosphatase.
HEK293-Blue-hTLR7 cells were incubated at a density of 250,000-450,000 cells/mL in a volume of 170 µL in a 96-well plate in Dulbecco's Modified Eagle's medium (DMEM) containing 4.5 g/L glucose, 50 U/mL penicillin, […], […], 2 mM L-glutamine, 10% (v/v) heat-inactivated fetal bovine serum with addition of 20 µL test compound in a serial dilution in the presence of final DMSO at 1% and 10 µL of 20uM R848 in above DMEM, perform incubation under 37 °C in a CO2 incubator for 20 hrs. Then 20 µL of the supernatant from each well was incubated with 180 µL Quanti-blue substrate solution at 37 °C for 2 hrs and the absorbance was read at 620-655 nm using a spectrophotometer. The signaling pathway that TLR7 activation leads to downstream NF-xB activation has been widely accepted, and therefore similar reporter assay was modified for evaluating TLR7 antagonist.

Compound | IC50
C[C@@H]1CN(c2ccc(C#N)c3ncccc23)C[C@H](CN2CCN(c3ccc4c(n3)[C@H](C)NC4)CC2)O1 (single isomer, unassigned) [Example 66] | 0.014 µM
C[C@@H]1CN(c2ccc(C#N)c3ncccc23)C[C@H](CN2CC3(C2)CN(c2cnc4c(c2)CNCC4)CCO3)O1 [Example 47, 5-[(2R,6S)-2-methyl-6-[[8-(5,6,7,8-tetrahydro-1,6-naphthyridin-3-yl)-5-oxa-2,8-diazaspiro[3.5]nonan-2-yl]methyl]morpholin-4-yl]quinoline-8-carbonitrile] | 0.012 µM
C[C@@H]1CN(c2ccc(C#N)n3ncc(F)c23)C[C@H](CN2CCN(c3cnc4c(c3)CNC4)CC2)O1 [Example 26, 4-[(2S,6R)-2-[[4-(6,7-dihydro-5H-pyrrolo[3,4-b]pyridin-3-yl)piperazin-1-yl]methyl]-6-methyl-morpholin-4-yl]-3-fluoro-pyrazolo[1,5-a]pyridine-7-carbonitrile] | 0.039 µM
C[C@@H]1CN(c2ccc(C#N)c3ncccc23)C[C@H](CN2CCC(Nc3ncc4c(n3)CCNC4)C2)O1 (stereo partly drawn) [Example 57, 5-[(2R,6S)-2-methyl-6-[[3-(5,6,7,8-tetrahydropyrido [4,3-d]pyrimidin-2-ylamino)pyrrolidin-1-yl]methyl]morpholin-4-yl] quinoline-8-carbonitrile] | 0.02 µM
C[C@@H]1CN(c2ccc(C#N)c3ncccc23)C[C@H](CN2CCN(c3ccc4c(c3)CN(CCO)C4)CC2)O1 [Example 16, 5-[(2S,6R)-2-[[4-[2-(2-hydroxyethyl)isoindolin-5-yl]piperazin-1-yl]methyl]-6-methyl-morpholin-4-yl]quinoline-8-carbonitrile] | 0.02 µM
C[C@@H]1CN(c2ccc(C#N)c3ncccc23)C[C@H](CN2CC3(C2)CN(c2ncc4c(n2)CCNC4)CCO3)O1 [Example 51, 5-[(2R,6S)-2-methyl-6-[[8-(5,6,7,8-tetrahydropyrido[4,3-d]pyrimidin-2-yl)-5-oxa-2,8-diazaspiro[3.5]nonan-2-yl]methyl]morpholin-4-yl]quinoline-8-carbonitrile] | 0.012 µM
C[C@@H]1CN(c2ccc(C#N)c3ncccc23)C[C@H](CN2CCN(c3ccc4c(c3)C(O)CN(C)C4)CC2)O1 (stereo partly drawn) [Example 59, 5-[(2S,6R)-2-[[4-(4-hydroxy-2-methyl-3,4-dihydro-1H-isoquinolin-6-yl)piperazin-1-yl]methyl]-6-methyl-morpholin-4-yl]quinoline-8-carbonitrile] | 0.041 µM
C[C@@H]1CN(c2ccc(C#N)c3ncccc23)C[C@H](CN2CCN(c3ccc4c(c3)CNC4)CC2CO)O1 (stereo partly drawn) [Example 15, 5-[(2S,6R)-2-[[2-(hydroxymethyl)-4-isoindolin-5-yl-piperazin-1-yl]methyl]-6-methyl-morpholin-4-yl]quinoline-8-carbonitrile] | 0.073 µM
C[C@@H]1CN(c2ccc(C#N)c3ncccc23)C[C@H](CN2CCN(c3ccc4c(c3)CCNC4CO)CC2)O1 (stereo partly drawn) [Example 24, 5-[(2S,6R)-2-[[4-[1-(hydroxymethyl)-1,2,3,4-tetrahydroisoquinolin-6-yl]piperazin-1-yl]methyl]-6-methyl-morpholin-4-yl]quinoline-8-carbonitrile] | 0.032 µM
C[C@@H]1CN(c2ccc(C#N)c3ncccc23)C[C@H](CN2CCC(Nc3ccc4c(c3)CNC4)C2)O1 (stereo partly drawn) [Example 38, 5-[(2S,6R)-2-[[3-(isoindolin-5-ylamino)pyrrolidin-1-yl]methyl]-6-methyl-morpholin-4-yl]quinoline-8-carbonitrile] | 0.065 µM
C[C@@H]1CN(c2ccc(C#N)c3ncccc23)C[C@H](CN2CCN(c3cnc4c(c3)CNCC4)C(C)(C)C2)O1 [Example 56, 5-[(2S,6R)-2-[[3,3-dimethyl-4-(5,6,7,8-tetrahydro-1,6-naphthyridin-3-yl)piperazin-1-yl]methyl]-6-methyl-morpholin-4-yl]quinoline-8-carbonitrile] | 0.012 µM
C[C@@H]1CN(c2ccc(C#N)c3ncccc23)C[C@H](CN2CCN(c3ncc4c(n3)CCNC4)CC2)O1 [Example 29, 5-[(2R,6S)-2-methyl-6-[[4-(5,6,7,8-tetrahydropyrido[4,3-d]pyrimidin-2-yl)piperazin-1-yl]methyl]morpholin-4-yl]quinoline-8-carbonitrile] | 0.011 µM
C[C@@H]1Cc2cnc(N3CCN(C[C@H]4CN(c5ccc(C#N)c6nccnc56)C[C@@H](C)O4)CC3)cc2CN1 (single isomer, unassigned) [Example 82] | 0.011 µM

Next, values leading:

IC50 | Compound
0.011 µM | C[C@@H]1Cc2cnc(N3CCN(C[C@H]4CN(c5ccc(C#N)c6ncccc56)C[C@@H](C)O4)CC3)cc2CN1 (single isomer, unassigned) [Example 77]
< 0.003 µM | C[C@@H]1CN(c2ccc(C#N)c3ncccc23)C[C@H](CN2C[C@@H]3[C@@H](C2)OCCN3c2cnc3c(c2)CCNC3)O1 [Example 52, 5-[(2S,6R)-2-[[(4aR,7aR)-4-(5,6,7,8-tetrahydro-1,7-naphthyridin-3-yl)-2,3,4a,5,7,7a-hexahydropyrrolo[3,4-b][1,4]oxazin-6-yl]methyl]-6-methylmorpholin-4-yl]quinoline-8-carbonitrile]
0.008 µM | C[C@@H]1CN(c2ccc(C#N)c3ncccc23)C[C@H](CN2CCCN(c3ncc4c(n3)CCNC4)CC2)O1 [Example 39, 5-[(2R,6S)-2-methyl-6-[[4-(5,6,7,8-tetrahydropyrido[4,3-d]pyrimidin-2-yl)-1,4-diazepan-1-yl]methyl]morpholin-4-yl]quinoline-8-carbonitrile]
0.008 µM | C[C@@H]1CN(c2ccc(C#N)c3ncccc23)C[C@H](CN2CCN(c3cc4c(cn3)CCNC4)CC2)O1 [Example 20, 5-[(2R,6S)-2-methyl-6-[[4-(5,6,7,8-tetrahydro-2,6-naphthyridin-3-yl)piperazin-1-yl]methyl]morpholin-4-yl]quinoline-8-carbonitrile]
0.008 µM | C[C@@H]1CN(c2ccc(C#N)c3nccnc23)C[C@H](CN2CCN(c3ccc4c(n3)CN[C@@H]4C)CC2)O1 (single isomer, unassigned) [Example 79]
0.005 µM | C[C@@H]1CN(c2ccc(C#N)c3nccnc23)C[C@H](CN2CCN(c3cc4c(cn3)[C@H](C)NCC4)CC2)O1 (single isomer, unassigned) [Example 85]
0.007 µM | C[C@@H]1CN(c2ccc(C#N)c3nccnc23)C[C@H](CN2CCN(c3cc4c(cn3)CN[C@@H](C)C4)CC2)O1 (single isomer, unassigned) [Example 84]
0.007 µM | C[C@@H]1CN(c2ccc(C#N)c3ncccc23)C[C@H](CN2CCN(c3ccc4c(n3)[C@@H](C)NC4)CC2)O1 (single isomer, unassigned) [Example 65]
0.004 µM | C[C@@H]1CN(c2ccc(C#N)c3ncccc23)C[C@H](CN2CCN(c3cccc4c3CNC4)CC2)O1 [Example 2, 5-[(2S,6R)-2-[(4-isoindolin-4-ylpiperazin-1-yl)methyl]-6-methyl-morpholin-4-yl] quinoline-8-carbonitrile]
0.011 µM | C[C@@H]1CN(c2ccc(C#N)c3ncccc23)C[C@H](CN2CC3(C2)CN(c2ccc4c(c2)CCNC4)CCO3)O1 [Example 44, 5-[(2R,6S)-2-methyl-6-[[8-(1,2,3,4-tetrahydroisoquinolin-6-yl)-5-oxa-2,8-diazaspiro[3.5]nonan-2-yl]methyl]morpholin-4-yl]quinoline-8-carbonitrile]
